According to US8710264B2, “Antitumoral compounds” (priority 2007, dated 2014):
≈ marks a conversion by molar mass, not a printed value. Read-outs that look alike come from different tables or passages of the source.

Experiments:
HT29 = assay: Cytotoxicity assay, SRB colorimetric assay; type: cell-based; settings: Homo sapiens; for GI50: concentration that produces 50% growth inhibition; for IC (TGI): total growth inhibition (cytostatic effect)
From the text: (§1) The aim of this assay is to evaluate the in vitro cytostatic (ability to delay or arrest tumor cell growth) or cytotoxic (ability to kill tumor cells) activity of the samples being tested.
(§2) Evaluation of Cytotoxic Activity Using the SBR Colorimetric Assay
(§3) A colorimetric type of assay, using sulforhodamine B (SRB) reaction has been adapted for a quantitative measurement of cell growth and viability (following the technique described by Skehan P et al. J. Natl. Cancer Inst. 1990, 82, 1107-1112).
(§4) This form of assay employs SBS-standard 96-well cell culture microplates (Faircloth et al. Methods in Cell Science, 1988, 11(4), 201-205; Mosmann et al, Journal of Immunological. Methods, 1983, 65(1-2), 55-63). All the cell lines used in this study, derived from different types of human cancer, were obtained from the American Type Culture Collection (ATCC).
(§5) Cells were maintained in Dulbecco's Modified Eagle Medium (DMEM) supplemented with 10% Fetal Bovine Serum (FBS), 2 mM L-glutamine, 100 U/mL penicillin and 100 U/mL streptomycin at 37° C., 5% CO2 and 98% humidity. For the experiments, cells were harvested from subconfluent cultures using trypsinization and resuspended in fresh medium before counting and plating.
(§6) Cells were seeded in 96 well microtiter plates at 5×10^3 cells per well in aliquots of 150 μL, and allowed to attach to the plate surface for 18 hours in drug free medium. One control (untreated) plate of each cell line was fixed (as described below) and used for time zero reference value. Afterwards, test samples were added to the cultures in ten serial dilutions, in aliquots of 50 μL, ranging from 10 to 0.00262 μg/mL. After 48 hours exposure, the antitumor effect was estimated by the SRB method: Briefly, cells were washed twice with PBS, fixed for 15 min in 1% glutaraldehyde solution, rinsed twice in PBS, and stained in 0.4% SRB solution for 30 min at room temperature. Cells were then rinsed several times with 1% acetic acid solution and air-dried. SRB was then extracted in 10 mM trizma base solution and the absorbance measured in an automated spectrophotometric plate reader at 490 nm. Cell survival was expressed as percentage of control cell growth. The final effect of the sample being tested was estimated by applying the NCI algorithm (Boyd M R and Paull K D. Drug Dev. Res. 1995, 34, 91-104).
(§7) Using the mean±SD of triplicate cultures, a dose-response curve was automatically generated using nonlinear regression analysis. Three reference parameters were calculated (NCI algorithm) by automatic interpolation: GI50=concentration that produces 50% growth inhibition; TGI=total growth inhibition (cytostatic effect) and LC50=concentration that produces 50% net cell killing (cytotoxic effect).

MDA-MB-231 = assay: Cytotoxicity assay, SRB colorimetric assay; type: cell-based; settings: Homo sapiens; for GI50: concentration that produces 50% growth inhibition; for IC (TGI): total growth inhibition (cytostatic effect)
From the text: as §1, §2, §3, §4, §5, §6, §7

A549 = assay: Cytotoxicity assay, SRB colorimetric assay; type: cell-based; settings: Homo sapiens; for LC50 (50% net cell killing): read-out: LC50; for GI50: concentration that produces 50% growth inhibition; for IC (TGI): total growth inhibition (cytostatic effect)
From the text: as §1, §2, §3, §4, §5, §6, §7

breast cancer carcinoma = settings: cited from earlier work
[1] = test system: L929 mouse fibroblast cell culture; settings: toxicity toward L929 mouse fibroblast cell culture; cited from earlier work
Saccharomyces cerevisiae = settings: fungus Saccharomyces cerevisiae; cited from earlier work
[2] = MDA-MB-231, 48 h, read-out: LC50
[3] = HT-29, HT29, 48 hours exposure, concentration that produces 50% net cell killing (cytotoxic effect), read-out: LC50 (the source's name)
[4] = MDA-MB-231, 48 hours exposure, concentration that produces 50% net cell killing (cytotoxic effect), read-out: LC50 (the source's name)
[5] = A549, 48 hours exposure, concentration that produces 50% net cell killing (cytotoxic effect)

Compound	CC50 (HT29; HT-29, 48 h, read-out: LC50)	GI50 (HT29; HT-29, HT29, 48 hours exposure)	IC (TGI) (HT29; HT-29, HT29, 48 hours exposure)	CC50 (MDA-MB-231; [2])	GI50 (MDA-MB-231; MDA-MB-231, 48 hours exposure)	IC (TGI) (MDA-MB-231; MDA-MB-231, 48 hours exposure)	LC50 (50% net cell killing) (A549; A549, 48 h)	GI50 (A549; A549, 48 hours exposure)	IC (TGI) (A549; A549, 48 hours exposure)	CC50 (HT29; [3])	CC50 (MDA-MB-231; [4])	LC50 (50% net cell killing) (A549; [5])	IC50 (breast cancer carcinoma)	IC50 [1]	MIC (Saccharomyces cerevisiae)
C/C(Cl)=C\C[C@H](O)C/C=C\NC(=O)[C@@H](NC(=O)\C=C/C=C\C(C)=C\[C@H](C)c1ccccc1)C(C)(C)C [Compound 38]	4.68 µM	1.09 µM	1.52 µM	> 19.5 µM	2.14 µM	4.48 µM	> 19.5 µM	1.81 µM	4.87 µM	–	–	–	–	–	–
COc1cc(/C=C(C)/C=C\C=C/C(=O)N[C@H](C(=O)N/C=C\C[C@H](C/C=C(\C)Cl)O[Si](C)(C)C(C)(C)C)C(C)(C)C)ccc1O[Si](C)(C)C(C)(C)C [Compound 30]	–	0.777 µM	0.816 µM	–	0.764 µM	0.974 µM	–	0.671 µM	0.764 µM	0.869 µM	1.26 µM	0.908 µM	–	–	–
C/C(Cl)=C\C[C@@H](C/C=C\NC(=O)[C@@H](NC(=O)\C=C/C=C\C(C)=C\[C@H](C)c1ccccc1)C(C)(C)C)OC(N)=O [Compound 39]	0.36 µM	0.036 µM	0.0593 µM	> 18 µM	0.0917 µM	0.27 µM	> 18 µM	0.0557 µM	> 18 µM	–	–	–	–	–	–
C=C/C=C\[C@H](C)[C@H](OC(N)=O)[C@@H](C)[C@H](O)[C@@H](C)C/C(C)=C\[C@H](C)[C@@H](O)[C@@H](C)/C=C\[C@@H](O)C[C@@H]1OC(=O)[C@H](C)[C@@H](O)[C@H]1C (single isomer, unassigned) [(+)-discodermolide]	–	–	–	–	–	–	–	–	–	–	–	–	0.0024 µM	–	–
C/C(Cl)=C\C[C@@H](C/C=C\NC(=O)[C@@H](NC(=O)\C=C/C=C\C(C)=C\Cc1ccccc1)C(C)(C)C)OC(N)=O [Compound 34]	0.904 µM	0.443 µM	0.572 µM	> 18.4 µM	1.03 µM	4.43 µM	> 18.4 µM	0.701 µM	2.77 µM	–	–	–	–	–	–
COC(=O)CNC(=O)CCC/C=C\NC(=O)/C=C(C)/C=C/[C@H](C)[C@H](OC)[C@H](C)[C@H](/C=C/c1ccccc1)OC [crocacin D]	–	–	–	–	–	–	–	–	–	–	–	–	–	0.06 µg/mL (≈ 0.111 µM)	0.0014 µg/mL (≈ 0.00259 µM)
C=CCCOC(=O)[C@@H](NC(=O)\C=C/C=C\C(C)=C\c1ccc(O)c(OC)c1)C(C)(C)C [Compound 36]	–	1.96 µM	7.95 µM	–	1.15 µM	2.57 µM	–	3.27 µM	> 23.4 µM	> 23.4 µM	19.2 µM	> 23.4 µM	–	–	–
C/C(Cl)=C\C[C@H](O)C/C=C\NC(=O)[C@@H](NC(=O)\C=C/C=C\C(C)=C\Cc1ccccc1)C(C)(C)C [Compound 33]	3.81 µM	1.1 µM	1.82 µM	8.01 µM	3.01 µM	4.81 µM	7.41 µM	1.58 µM	3.41 µM	–	–	–	–	–	–
CC(=O)O[C@H]1C(=O)[C@@]2(C)[C@H]([C@H](OC(=O)c3ccccc3)[C@]3(O)C[C@H](OC(=O)[C@H](O)[C@@H](NC(=O)c4ccccc4)c4ccccc4)C(C)=C1C3(C)C)[C@]1(OC(C)=O)CO[C@@H]1C[C@@H]2O [paclitaxel]	–	–	–	–	–	–	–	–	–	–	–	–	0.0021 µM	–	–
C/C(Cl)=C\C[C@@H](C/C=C\NC(=O)[C@@H](NC(=O)\C=C/C=C\C(C)=C\Cc1ccccc1)C(C)(C)C)O[Si](C)(C)C(C)(C)C [Compound 32]	–	0.49 µM	0.621 µM	–	0.833 µM	1.11 µM	–	0.49 µM	0.686 µM	0.849 µM	1.5 µM	1.06 µM	–	–	–
C/C(Cl)=C\C[C@@H](C/C=C\NC(=O)[C@@H](NC(=O)\C=C/C=C\C(C)=C\[C@H](C)c1ccccc1)C(C)(C)C)O[Si](C)(C)C(C)(C)C [Compound 37]	–	3.67 µM	4.46 µM	–	5.26 µM	7.01 µM	–	2.87 µM	5.9 µM	5.9 µM	9.4 µM	10.8 µM	–	–	–
